Our source for the Time and Activity values is ChEMBL document CHEMBL6092201, “Discovery of cyanoguanidine derivatives as biased μ-opioid receptor agonists” (2024).

What all share (format): functional
Test [1] relates to Mus musculus. Put plainly: Analgesic activity in Kunming mouse assessed as increase in pain threshold at 10 mg/kg, po (reference value: 0.13 +/- 5.20 sec).
The target in test [2] is Mu-type opioid receptor (Homo sapiens) (UniProt P35372). Put plainly: Agonist activity at MOR (unknown origin) assessed as cAMP accumulation at 50 nM relative to control. In general terms: cAMP levels reflect the balance of adenylyl cyclase and phosphodiesterase activity.
Test [3] shares this target. Put plainly: Agonist activity at MOR (unknown origin) assessed as beta-arrestin2 recruitment at 0.1 uM incubated for 90 to 180 mins by chemiluminescence based microplate reader assay relative to control. The settings on record: time 90-180 min. A general note: Arrestin recruitment assays detect the binding of arrestin to an activated receptor.
Test [4] has the same target. As to the kind of experiment: Agonist activity at MOR (unknown origin) assessed as beta-arrestin2 recruitment at 50 uM incubated for 90 to 180 mins by chemiluminescence based microplate reader assay. The following applies: time 90-180 min.
Test [5] shares this target. As to the kind of experiment: Agonist activity at MOR (unknown origin) assessed as beta-arrestin2 recruitment at 10 uM incubated for 90 to 180 mins by chemiluminescence based microplate reader assay relative to control. The following applies: time 90-180 min.
Test [6] shares this target. As to the kind of experiment: Agonist activity at MOR (unknown origin) assessed as cAMP accumulation at 0.5 nM relative to control.
For test [7] the target is unchanged. Put plainly: Agonist activity at MOR (unknown origin) assessed as beta-arrestin2 recruitment at 1 uM incubated for 90 to 180 mins by chemiluminescence based microplate reader assay relative to control. The following applies: time 90-180 min.

Calls of active or inactive are those of the source.

Sequence of Mu-type opioid receptor (Homo sapiens) (P35372 whole entry): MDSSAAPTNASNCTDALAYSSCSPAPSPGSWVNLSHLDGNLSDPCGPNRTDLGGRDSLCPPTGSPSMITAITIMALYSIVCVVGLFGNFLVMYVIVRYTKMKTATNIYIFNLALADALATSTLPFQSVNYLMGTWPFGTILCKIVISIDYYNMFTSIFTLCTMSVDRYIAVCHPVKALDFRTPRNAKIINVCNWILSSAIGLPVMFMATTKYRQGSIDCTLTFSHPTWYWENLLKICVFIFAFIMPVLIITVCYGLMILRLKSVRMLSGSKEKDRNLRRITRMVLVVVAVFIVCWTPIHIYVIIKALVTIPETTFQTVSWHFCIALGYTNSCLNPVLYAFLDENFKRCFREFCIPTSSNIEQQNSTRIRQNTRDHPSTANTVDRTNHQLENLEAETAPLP

Regarding `CN(C)[C@H](CN/C(=N/C#N)NCCc1ccc(O)cc1)Cc1ccccc1`, the Time in test [1] turned out to be 6.82 s. For the same compound, the Activity in test [2] is 19.3%; in test [3], -0.9%; in test [5], -0.9%; in test [6] it was 13.2%; in test [7], -0.7%. Moreover, in test [4], the result was inactive.
Consider `CC(Cc1c[nH]cn1)N/C(=N\C#N)NC[C@H](Cc1ccccc1)N(C)C` (stereo partly specified), for which, in test [1], the Time is listed as 11.38 s. Moreover, the Activity was 0.8% in test [2]; -0.5% in test [3]; 2.2% in test [5]; -14.4% in test [6]; -0.1% in test [7]. The result in test [4] was inactive.
As for `COc1ccc(CN/C(=N\C#N)NC[C@H](Cc2ccccc2)N(C)C)cc1`, in test [1], the Time is 14.34 s. In addition, the Activity in test [2] was 14.4%; in test [3] it was -0.9%; in test [5], 0.9%; in test [6] it was 2.9%; in test [7] it was -0.6%. Besides, in test [4], the result was inactive.
Consider `CN1CC[C@]23c4c5ccc(O)c4O[C@H]2[C@@H](O)C=C[C@H]3[C@H]1C5` [MORPHINE], for which the Time in test [1] worked out at 22.79 s.
As for `COc1cccc(CCN/C(=N\C#N)NC[C@H](Cc2ccccc2)N(C)C)c1`, the Time in test [1] is reported as 12.47 s. The Activity was 10.3% in test [2]; -1% in test [3]; 23% in test [5]; 3.3% in test [6]; -0.6% in test [7]. For the same compound, the result in test [4] was inactive.
With `COc1ccccc1N/C(=N\C#N)NC[C@H](Cc1ccc(O)cc1)N(C)C`, the Time in test [1] was 7.76 s. Also, the Activity in test [2] is 32.9%; in test [3], -1.2%; in test [5] it was -1%; in test [6], 25.5%; in test [7], -1%. The result in test [4] was inactive.
Consider `CC(Cc1cc[nH]n1)N/C(=N\C#N)NC[C@H](Cc1ccccc1)N(C)C` (stereo partly specified), for which, in test [1], the Time amounted to 15.44 s. Besides, the Activity is -15.2% in test [2]; -0.4% in test [3]; -0.6% in test [5]; -2.5% in test [6]; -0.7% in test [7]. Further, the outcome in test [4] was inactive.
Regarding `COc1ccccc1N/C(=N\C#N)NC[C@H](Cc1ccccc1)N(C)C`, the Time in test [1] was 7.34 s. Besides, the Activity in test [2] was 36.9%; in test [3] it was -0.8%; in test [5], 15.2%; in test [6], 9.5%; in test [7], 2%. In test [4], the outcome was inactive.
Take `CC(Cc1ccsc1)N/C(=N\C#N)NC[C@H](Cc1ccccc1)N(C)C` (stereo partly specified): in test [1], the Time was 22.76 s. The Activity in test [2] was 9.1%; in test [3], -1%; in test [5], 1.9%; in test [6], -0.8%; in test [7], -0.6%. For the same compound, in test [4], the outcome was inactive.
In the case of `CC(Cc1cccs1)N/C(=N\C#N)NC[C@H](Cc1ccccc1)N(C)C` (stereo partly specified), in test [1], the Time is listed as 21.8 s. In addition, the Activity in test [2] is 37.2%; in test [3] it was -0.9%; in test [5], 2%; in test [6] it was 12.4%; in test [7], -0.4%. The outcome in test [4] was inactive.
With `CC(Cc1ccc[nH]1)N/C(=N\C#N)NC[C@H](Cc1ccccc1)N(C)C` (stereo partly specified), in test [1], the Time was 17.58 s. The Activity is 24.3% in test [2]; -1% in test [3]; 7.9% in test [5]; 5.8% in test [6]; -0.4% in test [7]. The result in test [4] was inactive.
In the case of `CN(C)[C@H](CN/C(=N/C#N)NCCc1ccccc1)Cc1ccccc1`, the Time in test [1] is recorded as 19.93 s. In addition, the Activity in test [2] was 28%; in test [3] it was -0.9%; in test [5], 2%; in test [6] it was 25.9%; in test [7], -0.2%. For the same compound, the outcome in test [4] was inactive.
As for `CC(Cc1ccncc1)N/C(=N\C#N)NC[C@H](Cc1ccccc1)N(C)C` (stereo partly specified), the Time in test [1] is 12.52 s. In addition, the Activity in test [2] was 8.6%; in test [3] it was -1.1%; in test [5] it was -0.5%; in test [6] it was 2.9%; in test [7], -0.9%. Besides, the result in test [4] was inactive.
For `CC(Cc1cccnc1)N/C(=N\C#N)NC[C@H](Cc1ccccc1)N(C)C` (stereo partly specified), the Time in test [1] is 15.75 s. For the same compound, the Activity in test [2] was 9.5%; in test [3], -1.1%; in test [5] it was -0.6%; in test [6] it was 9.3%; in test [7], -0.9%. In test [4], the result was inactive.
As for `COc1ccc(CN/C(=N\C#N)NC[C@H](Cc2ccc(O)cc2)N(C)C)cc1`, in test [1], the Time is 12.41 s. Also, the Activity is 19.8% in test [2]; -1% in test [3]; -0.9% in test [5]; 18.5% in test [6]; -0.8% in test [7]. Further, the outcome in test [4] was inactive.
As for `COc1ccc2cc(CC(C)N/C(=N\C#N)NC[C@H](Cc3ccccc3)N(C)C)ccc2c1` (stereo partly specified), the Time in test [1] was found to be 10.44 s. The Activity in test [2] is 23.6%; in test [3], -1%; in test [5] it was -1%; in test [6] it was 15.2%; in test [7], -1%. The result in test [4] was inactive.
As to `CN(C)[C@H](CN/C(=N/C#N)NCCc1cccc(F)c1)Cc1ccccc1`, the Time in test [1] is recorded as 8.86 s. Further, the Activity in test [2] was 14.4%; in test [3] it was -0.7%; in test [5], 4.8%; in test [6] it was 7.4%; in test [7], -0.3%. Also, the result in test [4] was inactive.
Regarding `CC(Cc1ccco1)N/C(=N\C#N)NC[C@H](Cc1ccccc1)N(C)C` (stereo partly specified), in test [1], the Time came to 7.57 s. For the same compound, the Activity is 15.6% in test [2]; -1.3% in test [3]; -0.8% in test [5]; 9.5% in test [6]; -1% in test [7]. Moreover, the result in test [4] was inactive.
Take `CC(Cc1c[nH]c2ccccc12)N/C(=N\C#N)NC[C@H](Cc1ccccc1)N(C)C` (stereo partly specified): the Time in test [1] came to 11.63 s. Also, the Activity in test [2] was 17.7%; in test [3] it was -0.9%; in test [5], -0.7%; in test [6], 11.1%; in test [7], -0.9%. Besides, the outcome in test [4] was inactive.
Turning to `CN(C)[C@H](CN/C(=N/C#N)NCCc1ccccc1)Cc1ccc(O)cc1`, the Time in test [1] came to 6.89 s. In addition, the Activity is 4.1% in test [2]; -0.9% in test [3]; -0.7% in test [5]; 8.6% in test [6]; -0.7% in test [7]. Besides, the outcome in test [4] was inactive.
As for `CN(C)[C@H](CN/C(=N/C#N)Nc1ccccc1)Cc1ccccc1`, the Time in test [1] was found to be 20.94 s. Also, the Activity in test [2] is 23.1%; in test [3] it was -0.5%; in test [5], 15.9%; in test [6], 2.1%; in test [7] it was 1.9%. Moreover, the result in test [4] was inactive.
